This note sets out measurements from US7803930B2, “Antisense modulation of apolipoprotein B-expression” (Isis Pharmaceuticals, Inc., priority 2002, dated 2010).

The series has as its system human apolipoprotein B mRNA. The series is described as follows: Inhibition of human apolipoprotein B mRNA levels in HepG2 cells, quantitative real-time PCR. It counts as cell-based. The note with it: HepG2 cells treated with 150 nM of compound; averages from two experiments; quantitative real-time PCR. The method, boiled down: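 Apolipoprotein B transcript was quantified by one-step TaqMan RT-PCR, normalized to GAPDH or RiboGreen RNA, and expressed as percent inhibition against an untreated-sample standard curve. HepG2 cells were harvested 16-24 h after oligonucleotide exposure, which was delivered with 3.75 μg/mL Lipofectin over 4-7 h at 80% confluency.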
A general note: Quantitative PCR measures a nucleic acid by following its amplification.

In the oligonucleotide strings, read from the 5' end, every base follows the letter of its sugar. An asterisk marks phosphorothioate; unmarked linkages are phosphodiester. Other units and linkages are bracketed, terminal groups are in braces. A string of capitals states the bases alone. e = 2'-O-(2-methoxyethyl) (MOE); [5mC] = 5-methylcytosine; d = 2'-deoxy (DNA)

Take “281613 (antisense eG*eT*eA*eT*eG*dG*dA*dA*dA*dT*dA*dA*d[5mC]*dA*d[5mC]*e[5mC]*e[5mC]*eT*eT*eG) [compound 281613]”: the “% INHIB (inhibition of human apolipoprotein B mRNA levels)” value (“% INHIB” below) is 70%. With “281614 (antisense eT*eA*eA*eG*e[5mC]*dT*dG*dT*dA*dG*d[5mC]*dA*dG*dA*dT*eG*eA*eG*eT*e[5mC]) [compound 281614]”, the “% INHIB” value is listed as 63%. In the case of “281615 (antisense eT*eA*eG*eA*eT*d[5mC]*dT*d[5mC]*dT*dG*dG*dA*dG*dG*dA*eT*eT*eT*eG*e[5mC]) [compound 281615]” it was 81%; in that of “281616 (antisense eG*eT*e[5mC]*eT*eA*dG*dA*dA*d[5mC]*dA*d[5mC]*d[5mC]*d[5mC]*dA*dG*eG*eA*eG*eA*eG) [compound 281616]”, 66%; in that of “281617 (antisense eA*e[5mC]*e[5mC]*eA*e[5mC]*dA*dG*dA*dG*dT*d[5mC]*dA*dG*d[5mC]*d[5mC]*eT*eT*e[5mC]*eA*eT) [compound 281617]”, 89%. The same measure for “281618 (antisense eA*eA*eG*e[5mC]*eA*dG*dA*d[5mC]*dA*dT*d[5mC]*dT*dG*dT*dG*eG*eT*e[5mC]*e[5mC]*e[5mC]) [compound 281618]”: 90%; for “281619 (antisense e[5mC]*eT*e[5mC]*eT*e[5mC]*d[5mC]*dA*dT*dT*dG*dA*dG*d[5mC]*d[5mC]*dG*eG*e[5mC]*e[5mC]*eA*eG) [compound 281619]”: 96%. For the substance “281620 (antisense e[5mC]*e[5mC]*eT*eG*eA*dT*dA*dT*dT*d[5mC]*dA*dG*dA*dA*d[5mC]*eG*e[5mC]*eA*eG*e[5mC]) [compound 281620]”, the “% INHIB” value is given as 89%.

On to “281621 (antisense e[5mC]*eA*eG*eT*eG*d[5mC]*d[5mC]*dT*dA*dA*dG*dA*dT*dG*dT*e[5mC]*eA*eG*e[5mC]*eA) [compound 281621]”, for which the “% INHIB” value is 53%. The same measure for “281622 (antisense eA*eG*e[5mC]*eA*e[5mC]*d[5mC]*dA*dG*dG*dA*dG*dA*d[5mC]*dT*dA*e[5mC]*eA*e[5mC]*eT*eT) [compound 281622]”: 88%; for “281623 (antisense e[5mC]*e[5mC]*e[5mC]*eA*eT*d[5mC]*d[5mC]*dA*dG*dA*d[5mC]*dT*dG*dA*dA*eT*eT*eT*eT*eG) [compound 281623]”: 59%. The same measure for “281624 (antisense eG*eG*eT*eT*e[5mC]*dT*dA*dG*d[5mC]*d[5mC]*dG*dT*dA*dG*dT*eT*eT*e[5mC]*e[5mC]*e[5mC]) [compound 281624]”: 75%. In the case of “281626 (antisense eA*eT*eG*eT*eG*d[5mC]*dA*dT*d[5mC]*dG*dA*dT*dG*dG*dT*e[5mC]*eA*eT*eG*eG) [compound 281626]” it was 88%; in that of “281627 (antisense e[5mC]*e[5mC]*eA*eG*eA*dG*dA*dG*d[5mC]*dG*dA*dG*dT*dT*dT*e[5mC]*e[5mC]*e[5mC]*eA*eT) [compound 281627]”, 82%; in that of “281628 (antisense e[5mC]*eT*eA*eG*eA*d[5mC]*dA*d[5mC]*dG*dA*dG*dA*dT*dG*dA*eT*eG*eA*e[5mC]*eT) [compound 281628]”, 81%. As for “281629 (antisense eT*e[5mC]*e[5mC]*eA*eA*dG*dT*d[5mC]*d[5mC]*dT*dG*dG*d[5mC]*dT*dG*eT*eA*eT*eT*e[5mC]) [compound 281629]”, the “% INHIB” value is listed as 83%. For the substance “281630 (antisense e[5mC]*eG*eT*e[5mC]*e[5mC]*dA*dG*dT*dA*dA*dG*d[5mC]*dT*d[5mC]*d[5mC]*eA*e[5mC]*eG*e[5mC]*e[5mC]) [compound 281630]”, the “% INHIB” value stood at 82%.
